Measurements reported in patent publication US20060264443A1, “Treatment of rheumatoid arthritis” (priority 2002, published 2006).
Where two headings read alike, the source gives them in different places.

Columns and labels:
[1] = tested on: patients with active severe rheumatoid arthritis; conditions: for Serum C-reactive protein: normal reference range <10 mg/l; for Rheumatoid factor: normal reference range <14 IU/ml
Experimental: If grade 3 or 4 toxicity occurs at the dose of 200 mg/day, the patient is removed from the study.
On each visit complete physical check up is performed (including blood pressure, pulse, body weight) and the following parameters will be assessed:
The oral glucocorticoid dose is required to be 15 mg or less of prednisone or equivalent.
A dose-escalation scheme is used. The starting dose is 200 mg per day for 2 weeks given as one 100 mg capsule taken in the morning and another in the afternoon.
The injected joints were omitted from efficacy analyses.
The primary efficacy measures were: change in the number of tender and swollen joints among the 66 diarthrodial joints, patient assessed pain and disease activity as estimated using the visual analogue scales (VAS), change in the blood erythrocyte sedimentation rate (ESR) and the serum C-reactive protein (CRP) level, and change in the health assessment questionnaire (HAQ) score. […] Serum CRP and blood ESR are measured prior to the study and on the study weeks 2, 4, 8, and 12.

[2] = tested on: patient with severe RA

CS(=O)(=O)O.Cc1ccc(NC(=O)c2ccc(CN3CCN(C)CC3)cc2)cc1Nc1nccc(-c2cccnc2)n1 [SALT I]
anti-rheumatic effect, duration ([1]; 2 patients who completed the 12-week study): sustained during the study period | outcome measures during SALT I therapy (overall) ([1]; 3 patients, 200 to 400 mg/day, up to 12 weeks): All outcome measures improved | HAQ ([1]; Patient 1, week 8, baseline 1.75): 1.5 | Serum C-reactive protein ([1]; Patient 1, week 8, baseline 10): 11 mg/L | Erythrocyte sedimentation rate ([1]; Patient 1, week 8, baseline 38): 23 mm/h | Patient-assessed disease activity (VAS) ([1]; Patient 1, week 8, baseline 77): 39 mm | Pain (VAS) ([1]; Patient 1, week 8, baseline 79): 42 mm | Rheumatoid factor ([1]; Patient 1, week 8, baseline 197): 65 IU/ml | HAQ ([1]; Patient 2, week 12, baseline 1.75): 0.75 | Serum C-reactive protein ([1]; Patient 2, week 12, baseline 36): 12 mg/L | Pain (VAS) ([1]; Patient 2, week 12, baseline 77): 26 mm | Patient-assessed disease activity (VAS) ([1]; Patient 2, week 12, baseline 96): 35 mm | Rheumatoid factor ([1]; Patient 2, week 12, baseline 501): 270 IU/ml | Erythrocyte sedimentation rate ([1]; Patient 2, week 12, no baseline value): 13 mm/h | HAQ ([1]; Patient 3, week 12, baseline 1.5): 1.1 | Erythrocyte sedimentation rate ([1]; Patient 3, week 12, baseline 28): 12 mm/h | Pain (VAS) ([1]; Patient 3, week 12, baseline 37): 22 mm | Serum C-reactive protein ([1]; Patient 3, week 12, baseline 42): 10 mg/L | Patient-assessed disease activity (VAS) ([1]; Patient 3, week 12, baseline 69): 23 mm | Morning stiffness ([1]; Patient no. 1, during the study, from 45 min): none | blood erythrocyte sedimentation rate ([1]; Patient no. 3, 24 weeks): 17 mm/h | duration of the morning stiffness ([1]; Patient no. 3, 24 weeks): 30 min | serum CRP level ([1]; Patient no. 3, 24 weeks): 9 mg/L | serum rheumatoid factor level ([1]; Patient no. 3, 24 weeks): 139 IU/ml | number of swollen joints ([1]; Patient no. 3, 24 weeks, 400 mg o.d.): 15 | Morning stiffness ([1]; Patient no. 3, during the study (12 weeks), from 180 min): 75 min | response of rheumatoid arthritis to treatment ([1]; all 3 patients): responded favorably | joint pain reported by all patients ([1]; first week of treatment, subsided below baseline during second study week): increased joint pain | RA status ([2]; January 2003, 400 mg daily, prior RA medication discontinued): still in remission | occasional macroscopic hematuria (RA-associated glomerulonephritis) ([2]; Jun. 14, 2001): had ceased | patient-reported RA condition ([2]; Jun. 14, 2001, 400 mg/day, prednisone reduced to 5 mg o.d.): further subjective improvement of their RA | RA status ([2]; September 2001): still in remission | RA condition ([2]; after 2 and 5 months of treatment, with prednisone 5 mg/day): further major improvements | patient-reported general condition ([2]; after several days, with prednisone 5 mg/day, 600 mg then 400 mg/day orally): improved joint motility and decrease of wrist swelling | patient-reported RA condition ([2]; control visit April 17, 600 mg/day for nine days, pause, then 400 mg/day from April 11): improved joint motility and decreased swelling particularly in the wrists
